Measurements reported in patent publication US6114517A, “Methods of modulating tumor necrosis factor α-induced expression of cell adhesion molecules” (Isis Pharmaceuticals Inc., priority 1998, dated 2000).

Legend:
Format in all cases: cell-based, human
[1] = tested on: Ha-ras protein; assay: Ha-ras protein levels, immunoprecipitation and Western blot in HMVEC; details: for Ha-ras protein expression: 48 hours following treatment
Procedure: (§1) For determination of protein levels by Western blot, cellular extracts were prepared using […] of RIPA extraction buffer per 100-mm dish. The protein concentration was quantified by Bradford assay using the BioRad kit (BioRad, Hercules, Calif.). Equal amounts of protein were loaded on 10% or 12% SDS-PAGE mini-gel (Novex, San Diego, Calif.). Once transferred to PVDF membranes (Millipore, Bedford, Mass.), the membranes were then treated for a minimum of 2 hours with specific primary antibody followed by incubation with secondary antibody conjugated to HRP. The results were visualized by Enhanced Chemiluminescent (ECL) detection (New England BioLab, Beverly, Mass.). In some experiments, the blots were stripped in stripping buffer (2% SDS, 12.5 mM Tris, pH 6.8) for 30 minutes at 50° C. After extensive washing, the blots were blocked and blotted with different primary antibody.
(§2) To examine the effect of ISIS 15168 (SEQ ID NO. 4) on Ha-ras protein levels, total ras protein was immunoprecipitated using a pan-ras monoclonal antibody (Oncogene Science, Cambridge, Mass.). The precipitated proteins were analyzed by SDS-PAGE, and Ha-ras protein levels were determined by western blot using a monoclonal antibody specific for Ha-ras (Oncogene Science, Cambridge, Mass.). […] The kinetics of Ha-ras reduction was slower than that of c-raf. The control oligonucleotide, ISIS 17552 (SEQ ID NO. 5), had no effect on Ha-ras protein level. The same blot was stripped and blotted a second time with a Ki-ras-specific antibody (Oncogene Science, Cambridge, Mass.).

[2] = tested on: Ha-ras mRNA; assay: Ha-ras mRNA levels by Northern blot in HMVEC
Procedure: Human dermal microvascular cells (HMVEC-d; Clonetics, San Diego, Calif.) were cultivated in endothelial basal media (EBM, Clonetics) supplemented with 10% fetal bovine serum (HyClone, Logan, Utah). Cells were grown in 100 mm petri dishes until 70-80% confluent, then washed with PBS and OPTI-MEM (Life Technologies, Inc., Gaithersburg, Md.). The cells were then incubated in the presence of OPTI-MEM and […] LIPOFECTIN (a 1:1 (w/w) liposome formulation of the cationic lipid N-[1-(2,3-dioleyloxy)propyl]-n,n,n-trimethylammonium chloride (DOTMA), and dioleoyl phosphotidylethanolamine (DOPE) in membrane filtered water (Life Technologies, Gaithersburg, Md.), per 100 nM of oligonucleotide followed by addition of oligonucleotide at the appropriate concentrations.
For determination of mRNA levels by Northern blot, total RNA was prepared from cells by the guanidinium isothiocyanate procedure or by the Qiagen RNAEASY method (Qiagen, Santa Clarita, Calif.) at the indicated times after initiation of oligonucleotide treatment. Northern blot analysis was performed as described in Current Protocols in Molecular Biology (Ausubel, F. M., et al., (eds), 1987, Greene Publishing Assoc. and Wiley Interscience, New York). A glyceraldehyde 3-phosphate dehydrogenase (G3PDH) probe was purchased from Clontech (Palo Alto, Calif., Catalog Number 9805-1). RNA was quantified and normalized to G3PDH mRNA levels using a Molecular Dynamic PHOSPHORIMAGER (Sunnyvale, Calif.).
ISIS 15168 (SEQ ID NO. 4) is a 2'-O-methoxyethyl mixed backbone chimeric antisense oligonucleotide designed to hybridize with sequences contained within the human Ha-ras mRNA. To determine the effect of ISIS 15168 (SEQ ID NO. 4) on Ha-ras expression in endothelial cells, HMVEC were treated, as described in Example 2, with oligonucleotide and northern blotting was used to measure Ha-ras mRNA levels. A Ha-ras probe was generated from the plasmid, pbc-N1 (American Type Culture Collection, Manassas, Va.; catalog #41001), following the supplied instructions.

[3] = tested on: Ki-ras protein; assay: Ki-ras protein levels by Western blot in HMVEC; details: same blot stripped and blotted with Ki-ras-specific antibody
Procedure: as §1
as §2, with “The control oligonucleotide, ISIS 17552 (SEQ ID NO. 5), had no effect on Ha-ras protein level. The same blot was stripped and blotted a second time with a Ki-ras-specific antibody (Oncogene Science, Cambridge, Mass.).” left out

[4] = tested on: p38 MAPK; assay: TNF-α-stimulated p38 MAPK activity, in vitro kinase assay on extracts of treated cells; details: 48 hours recovery, TNF-α 5 or 15 minutes
Procedure: (§3) To examine the effect of the c-raf antisense oligonucleotide (ISIS 12854, SEQ ID NO. 2) on ERK, JNK, and p38 MAPK activities stimulated by TNF-α, in vitro kinase assays were performed on extracts derived from cells treated with ISIS 12854 (SEQ ID NO. 2). Cells were treated with oligonucleotides and induced with cytokines. At the indicated time, cells were lysed on ice and debris was removed by centrifugation. Protein concentration was measured by Bradford assay. Lysate containing equal amounts of protein were incubated with primary antibody-agarose conjugates (ERK and p38 assay; Santa Cruz Biotechnology, Santa Cruz, Calif.), or with JNK1-specific or JNK2-specific antibodies (JNK assay; Upstate Biotechnology, Lake Placid, N.Y.), overnight at 4° C.
(§4) For isoform-specific JNK assays, anti-rabbit IgG conjugated with agarose beads was added to cell extracts following JNK antibody treatment and wash steps and incubated for 2 hours at 4° C. […]
(§5) Cells were treated with the c-raf antisense compound, ISIS 12854 (SEQ ID NO. 2), allowed to recover for 48 hours, at which time TNF-α was added for 5 or 15 minutes prior to cell lysis and initiation of the kinase assays. […] Suitable substrates and ATP were added to the immunoprecipitated kinase complexes and the reaction mixes were analyzed on SDS-PAGE. […]

[5] = tested on: JNK; assay: TNF-α-stimulated JNK activity, in vitro kinase assay on extracts of treated cells; details: 48 hours recovery, TNF-α 5 or 15 minutes
Procedure: as §3, §4, §5

Row | Substance | Ha-ras protein expression [1] | % mRNA Expression (Ha-ras) ([2]; 1 nM) [%] | % mRNA Expression (Ha-ras) ([2]; 5 nM) [%] | % mRNA Expression (Ha-ras) ([2]; 25 nM) [%] | % mRNA Inhibition (Ha-ras) ([2]; 25 nM) [%] | % mRNA Expression (Ha-ras) ([2]; 50 nM) [%] | % mRNA Expression (Ha-ras) ([2]; 100 nM) [%] | effect on Ki-ras protein levels [3] | Activation of p38 MAPK [4] | JNK activity [5] | persistence of reduction of Ha-ras protein ([1]; following initial treatment) | % mRNA Inhibition (Ha-ras) ([2]; 1 nM) [%] | % mRNA Inhibition (Ha-ras) ([2]; 5 nM) [%] | % mRNA Inhibition (Ha-ras) ([2]; 50 nM) [%] | % mRNA Inhibition (Ha-ras) ([2]; 100 nM) [%]
1 | ToCoAsGsTsAsAsTsAsGsCsCsCoCoAoCoAoToGoG [ISIS 17552, reference compound] | no effect | 103 | 115 | 96 | 4 | 109 | 105 | No effect |  |  |  |  |  |  | 
2 | ToCoCoCoGoCsCsTsGsTsGsAsCsAsToGoCoAoToT [ISIS 12854] |  |  |  |  |  |  |  |  | not affected | inhibited |  |  |  |  | 
3 | ToCoCsGsTsCsAsTsCsGsCsTsCoCoToCoAoGoGoG [ISIS 15168] | dose-dependent reduction | 61 | 44 | 19 | 81 | 10 | 9 | No effect |  |  | up to 72 hours | 39 | 56 | 90 | 91
